For orientation: Ki means the dissociation constant of the complex between target and ligand, obtained from inhibition or displacement. A high value points to weaker binding.

In ChEMBL document CHEMBL1155098, “Synthesis and binding studies of 2-O- and 11-O-substituted N-alkylnoraporphines” (Bioorg Med Chem Lett, 2008) one finds Ki and Ratio data, which are given here for six compounds.

The target in assay [1] is D(2) dopamine receptor (Rattus norvegicus, UniProt P61169). The assay is described as follows: Displacement of [3H]neomonapride from dopamine D2 receptor in rat corpus striatum. For orientation: In a radioligand displacement assay an active substance lowers the binding of a labelled ligand.
Assay [2] is filed under the species Rattus norvegicus. The assay is described as follows: Selectivity ratio of […] in rat corpus striatum. It is filed as tissue-based.
For assay [3], the target named is D(1A) dopamine receptor (Rattus norvegicus, UniProt P18901). Nature of the assay: Displacement of [3H]SCH23390 from dopamine D1 receptor in rat corpus striatum.
Assay [4] deals with T1, 5-hydroxytryptamine receptor 1A (Rattus norvegicus, UniProt P19327).
T1 sequence (P19327 whole entry): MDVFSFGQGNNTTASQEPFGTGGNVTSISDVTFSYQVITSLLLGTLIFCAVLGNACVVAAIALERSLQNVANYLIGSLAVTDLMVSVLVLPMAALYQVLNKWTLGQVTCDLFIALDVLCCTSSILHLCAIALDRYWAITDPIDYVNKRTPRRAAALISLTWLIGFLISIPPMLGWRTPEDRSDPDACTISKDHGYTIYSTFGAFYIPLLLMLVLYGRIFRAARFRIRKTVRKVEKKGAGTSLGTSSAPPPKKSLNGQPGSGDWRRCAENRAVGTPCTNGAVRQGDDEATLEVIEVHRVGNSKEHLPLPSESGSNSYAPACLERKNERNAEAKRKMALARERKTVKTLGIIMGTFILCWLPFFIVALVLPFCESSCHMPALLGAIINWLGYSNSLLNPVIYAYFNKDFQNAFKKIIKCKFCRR
The assay is described as follows: Displacement of [3H]8-OH-DPAT from Serotonin 5-HT1A receptor in rat corpus striatum.

D(1A) dopamine receptor, sequence (P18901 whole entry): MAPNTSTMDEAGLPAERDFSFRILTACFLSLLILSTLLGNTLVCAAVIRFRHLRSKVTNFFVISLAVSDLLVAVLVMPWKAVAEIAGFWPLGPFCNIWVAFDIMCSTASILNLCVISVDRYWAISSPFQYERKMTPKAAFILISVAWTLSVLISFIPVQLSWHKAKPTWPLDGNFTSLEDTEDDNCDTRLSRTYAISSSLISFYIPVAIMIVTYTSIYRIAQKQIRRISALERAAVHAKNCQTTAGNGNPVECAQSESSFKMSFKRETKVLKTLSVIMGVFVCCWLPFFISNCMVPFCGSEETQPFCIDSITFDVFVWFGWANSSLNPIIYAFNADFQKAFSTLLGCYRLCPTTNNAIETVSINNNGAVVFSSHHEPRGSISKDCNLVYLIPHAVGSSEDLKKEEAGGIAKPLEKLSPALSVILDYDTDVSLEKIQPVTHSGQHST
D(2) dopamine receptor, sequence (P61169 whole entry): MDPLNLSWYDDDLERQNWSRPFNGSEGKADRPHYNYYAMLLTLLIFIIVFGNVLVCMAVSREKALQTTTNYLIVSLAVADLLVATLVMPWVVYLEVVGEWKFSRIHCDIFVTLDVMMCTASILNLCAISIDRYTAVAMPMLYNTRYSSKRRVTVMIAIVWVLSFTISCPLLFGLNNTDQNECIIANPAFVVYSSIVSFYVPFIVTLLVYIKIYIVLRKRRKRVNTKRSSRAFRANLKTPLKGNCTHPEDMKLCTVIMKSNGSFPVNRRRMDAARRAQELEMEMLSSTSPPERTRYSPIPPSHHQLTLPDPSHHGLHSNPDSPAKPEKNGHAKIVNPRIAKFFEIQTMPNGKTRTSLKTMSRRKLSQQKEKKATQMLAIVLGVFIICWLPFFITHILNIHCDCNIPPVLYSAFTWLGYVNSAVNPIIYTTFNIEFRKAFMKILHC

As to `CCCN1CCc2cc(OCCO)cc3c2[C@H]1Cc1cccc(O)c1-3`, the inhibition constant Ki in assay [1] was 0.097 µM; in assay [3] it was greater than 10 µM. The Ratio in assay [2] was greater than 103.
Take `CCOc1cccc2c1-c1cc(O)cc3c1[C@@H](C2)N(C)CC3`: the values for the Ki in assay [1], in assay [4] and in assay [3] were 0.641 µM, 0.432 µM and 3.68 µM, respectively. For the same compound, in assay [2], the Ratio is 5.7.
On to `CN1CCc2cc(O)cc3c2[C@H]1Cc1cccc(OCCO)c1-3`, for which the Ki in assay [1] was 3.34 µM; in assay [4], 0.289 µM; in assay [3], greater than 10 µM. The Ratio in assay [2] is 3.
For `CCCN1CCc2cc(OC)cc3c2[C@H]1Cc1ccccc1-3`, the Ki was 1.6 µM in assay [4] and greater than 10 µM in assay [3].
`CCCOc1cccc2c1-c1cc(O)cc3c1[C@@H](C2)N(C)CC3` came in with a Ki in assay [3] of 1.81 µM. This lies in the single-digit micromolar range.
With `COc1cc2c3c(c1)-c1ccccc1C[C@H]3N(C)CC2`, the Ki in assay [1] came out at 0.731 µM; in assay [4], 2.66 µM; in assay [3], 1.3 µM. The Ratio in assay [2] was 1.8.
